From patent US8067456B2 (AEterna Zentaris GmbH, priority 2004, dated 2011)
Converted amounts (≈) assume the structure as drawn.

Tests used:
castrated rats = test: LH concentration suppression in the plasma of castrated rats; assay type: in vivo, rat; details: 100 mg/kg oral in Solutol HS15/1,2-propane-diol (3:1)
Method: The LH concentration in the plasma of castrated rats was measured using the rat luteinizing hormone (rLH) enzyme immunoassay (EIA) system ELISA (RPN 2562) from Amersham Pharmacia Biotech or of LH RIA-AH R002 rats; from Biocode-Hycel, Liege, Belgium. All other chemicals used were from commercial sources in the highest purity available.
10 days before the start of the test, male Sprague Dawley rats (Harlan Winkelmann, Germany) weighing 190-220 g were anesthetized with ether and castrated and provided with a silicone catheter for permanent blood sampling.
At the start of the test, before administration of the substance, blood samples were taken and the LH level determined. The substance was then administered orally in the desired concentration. The number of animals used in each group was 8. At the stated times, further blood samples were taken. The blood was collected in heparinized sample tubes on ice, and the plasma was obtained by centrifugation at 3000 g for 10 minutes. The plasma samples were stored at −20° C. until the LH concentration was measured by ELISA or RIA. The LH concentration was determined by an ELISA or RIA in duplicate determination in accordance with the manufacturer's (Amersham Pharmacia Biotech; Biocode-Hycel) instructions.
All the other data points for each individual animal were calculated as relative concentration compared with the LH concentration before treatment.

LHRH receptor = molecular target: T1, LHRH receptor (Rattus norvegicus, UniProt P30969); test: LHRH receptor-ligand binding assay (membrane preparations from rat pituitary cells); details: competition with 0.05 nM [125I][D-Trp6]-LHRH, 90 min, 4° C., rat pituitary membranes
T1 construct: rat pituitary cells which naturally strongly express the LHRH receptor; from tissue; host or cells: rat pituitary cells (membrane preparation)
T1 sequence (P30969 1-327): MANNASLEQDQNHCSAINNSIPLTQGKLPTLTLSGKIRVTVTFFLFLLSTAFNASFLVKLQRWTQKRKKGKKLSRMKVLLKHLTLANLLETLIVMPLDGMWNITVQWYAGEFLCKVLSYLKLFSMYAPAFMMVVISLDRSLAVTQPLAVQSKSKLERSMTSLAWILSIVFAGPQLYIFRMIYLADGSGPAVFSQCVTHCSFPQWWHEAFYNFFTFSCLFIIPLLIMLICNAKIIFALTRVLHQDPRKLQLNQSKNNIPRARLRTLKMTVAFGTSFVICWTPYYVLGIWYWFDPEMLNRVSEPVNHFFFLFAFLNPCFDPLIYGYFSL
Method: Heterologous competition experiments were carried out using membrane preparations from rat pituitary cells which naturally strongly express the LHRH receptor. The ligand used in this case was [^125I][D-Trp^6]-LHRH in a concentration of 0.05 nM. Unlabeled [D-Trp^6]-LHRH was used in a concentration of 1 μM, or the test substance was used in the desired concentration, for competition. After an incubation time of 90 minutes at 4° C., the bound ligand was measured by scintillation (Halmos et al., Proc. Natl. Acad. Sci. USA, 1996, 93, 2398).
The result obtained was the percentage proportion of bound ligand in the presence of the competitor related to the specifically bound proportion of the control (see result for selected compounds in Table 3). EC50 values were calculated by nonlinear regression analysis of the competition plots.

[1] = Saturation solubility in water; assay type: physicochemical; details: water, thermodynamic from solid; maximum of 1% DMSO added, HPLC UV
Method: The saturation solubility in water was determined in accordance with the following description: to initiate dissolving of the substances and to improve the wetting of the samples, a maximum of 1% DMSO was added. The content was checked by using an HPLC UV method.

[2] = Metabolic stability in human liver microsomes; assay type: in vitro ADME; details: 1 μM, 37° C., NADPH
Method: The metabolic stability in relation to liver microsomes (species human, rat) was determined in accordance with the following description: the substances were incubated at a test concentration of 1 […] An HPLC MS/MS method was subsequently used to quantify the unmetabolized amount of starting compound relative to 100%.

[3] = test system: LHRH-stimulated LH secretion from rat pituitary cells; test: Inhibition of LHRH-induced LH secretion from rat pituitary cells in vitro; assay type: cell-based; details: LHRH 10 nM, 3 hours
Method: The LH concentration in cell culture supernatants was measured using the rat luteinizing hormone (rLH) enzyme immunoassay (EIA) system ELISA (RPN 2562) from Amersham Pharmacia Biotech. All other chemicals used were from commercial sources in the highest purity available.
Juvenile male Wistar rats (Harlan Winkelmann, Germany) were sacrificed by decapitation, and the pituitaries were removed and taken up in Hanks' buffer (HBSS) with 0.3% BSA and 10 mM HEPES (pH 7.4). Pituitaries from 20 rats were required to carry out one experiment. The cells of the anterior lobe of the pituitary were separated from the remaining tissue by incubation in Hanks' buffer with 10 mM HEPES (pH 7.4), 0.3% BSA, 1 mg/ml hyaluronidase (type VIII), 1 mg/ml soybean trypsin inhibitor, 10 μg/ml DNAsel and 1 mg/ml papain at 37° C. for 30 minutes A sterile Pasteur pipette was used to disperse the cells, and they were subsequently pelleted by centrifugation. The cells were seeded in a density of 2.5×10^5 cells/well of a collagen-coated 48-well plate (Becton Dickinson) in DMEM medium (Invitrogen Life Technologies, Germany) with 10% fetal calf serum (FCS; Invitrogen Life Technologies, Germany), 10 mill nonessential amino acids and 10 mill Pen/Strep (penicillin/streptomycin).
The medium was changed after incubation at 37° C., 5% CO2 and 95% humidity for 48 h. The medium was replaced by LHRH-containing (10 nM) medium or medium with LHRH (10 nM) and test substance in the concentration indicated (table). After a further incubation for 3 hours, the cell supernatant was harvested and frozen at −20° C. The LH content was determined by means of ELISA in triplicate determination in accordance with the manufacturer's (Amersham Pharmacia Biotech) instructions.
In the following table, “% Inhibition” describes the quotient of LHRH-stimulated LH secretion with (“LH (ng/ml)” and without the addition of the test substance. The values originate from different, independent experiments.

EC50 (LHRH receptor): 6.9 nM | solubility [1]: 54.6 µg/mL (≈ 80.9 µM) | recovery at 1 μM [2]: 65%
Compound: CCC(C)[C@H](NC(=O)OCc1ccccc1)C(=O)N[C@]1(C(=O)N[C@H](C(N)=S)C(C)CC)CCc2[nH]c3c(Cl)cc(Cl)cc3c2C1 (stereo partly drawn) [Compound 7, benzyl {(S)-1-[(R)-6,8-dichloro-3-((S)-2-methyl-1-thiocarbamoylbutylcarbamoyl)-2,3,4,9-tetrahydro-1H-carbazol-3-ylcarbamoyl]-2-methylbutyl}carbamate]
Relative LH concentration (%) (averages ± SEM compared with the concentration before treatment) (castrated rats; time 0 h): 91.8 ± 19.1% | Relative LH concentration (%) (averages ± SEM compared with the concentration before treatment) (castrated rats; time +4 h): 19.6 ± 8.9% | Relative LH concentration (%) (averages ± SEM compared with the concentration before treatment) (castrated rats; time +6 h): 10.1 ± 3.2% | Relative LH concentration (%) (averages ± SEM compared with the concentration before treatment) (castrated rats; time +24 h): 65.1 ± 13.9% | Relative LH concentration (%) (averages ± SEM compared with the concentration before treatment) (castrated rats; time +48 h): 110.6 ± 33.0% | Relative LH concentration (%) (averages ± SEM compared with the concentration before treatment) (castrated rats; time +72 h): 268.4 ± 93.0% | Relative LH concentration (%) (averages ± SEM compared with the concentration before treatment) (castrated rats; time −2 h (before treatment)): 110.8 ± 12.2% | Relative LH concentration (%) (averages ± SEM compared with the concentration before treatment) (castrated rats; time −4 h (before treatment)): 97.4 ± 15.3% | inhibition at 0.033 µM ([3]; Rattus norvegicus, test substance 3.3 × 10^−8 M, read-out: % Inhibition): 83% | inhibition at 0.0033 µM ([3]; Rattus norvegicus, test substance 3.3 × 10^−9 M): 43% | LH (ng/ml) ± SD ([3]; test substance 3.3 × 10^−8 M): 79.9 ± 15.0 ng/mL | LH (ng/ml) ± SD ([3]; test substance 3.3 × 10^−9 M): 194.0 ± 13.2 ng/mL
